Read-outs that look alike come from different tables or passages of the source.
Legend:
[1] = tested on: Carrot (Daucus carota subsp. sativus); assay: Activation test 3 (root growth, plant size after harvest); assay type: in vivo; conditions: 0.24% (w/w) malic acid, 0.06% (w/w) acetic acid, or both, pH=6.0; 50 mL at root 3 times; harvest 90 days after first irrigation; Welch test
Experimental: Carrot (Daucus carota subsp. sativus of the family Apiaceae) budded from seeds direct-seeded in a farm field was used.
During the test period, each plant was watered by natural rainfall.
2 weeks after budding, a seedling having four to five true leaves was irrigated, at its root, with 50 mL of each testing solution. 3 weeks and 6 weeks after the initial irrigation treatment, the plant was irrigated again with 50 mL of the testing solution (irrigated a total of 3 times).
90 days after the first irrigation treatment, plant individuals were harvested, and aerial parts (leaf parts) were cut off to prepare edible root parts. Then, the wet weights of 100 individuals per test group were measured. Top 10% and bottom 10% of the data were removed, and the average weight and standard deviation of the plants in each test group were calculated as to the remaining 80 individuals.

[2] = tested on: Swamp chrysanthemum (Leucanthemum paludosum); assay: Activation test 6 (induction and growth of flower buds); assay type: in vivo; conditions: for number of new flower buds compared with water treatment group 6: pots dipped in 200 mL testing solution 24 hours, apical buds cut off, counted 3 weeks later, 0.24% (w/w) malic acid, 0.06% (w/w) acetic acid, or both, pH=6.0
Source text: Swamp chrysanthemum (Leucanthemum paludosum of the family Compositae) raised in a 9 cm pot was used. […] All apical buds of the plants thus treated with the solution were cut off (pinched) with scissors.

[3] = tested on: Spinach (Spinacia oleracea); assay: Activation test 2 (plant growth, plant size after harvest); assay type: in vivo; conditions: pH=6.0, 50 mL at root 3 times, harvest 45 days after first irrigation
Experimental: Spinach (Spinacia oleracea of the family Amaranthaceae) budded from seeds direct-seeded in a farm field in a plastic greenhouse was used. During the test period, each plant was watered twice a day at 6 a.m. and 4 p.m. from an automatically controlled irrigation system. 2 weeks after budding, a seedling having three to five true leaves was irrigated, at its root, with 50 mL of each testing solution given below. 2 weeks and 4 weeks after the initial irrigation treatment, the plant was irrigated again with 50 mL of the testing solution (irrigated a total of 3 times). […] The average weight and standard deviation of the plants in each test group were calculated. […] The results of the Welch test in these and following drawings mean *: p<0.05 and **: p<0.01. The testing solutions used are as described below. Testing solutions prepared in the same way were also used in activation tests 3 to 6 given below. […] Malic acid treatment group 2: 0.24% (w/w) aqueous malic acid solution Acetic acid treatment group 2: 0.06% (w/w) aqueous acetic acid solution Treatment group 2: aqueous solution containing 0.24% (w/w) malic acid and 0.06% (w/w) acetic acid Each solution was adjusted to pH=6.0 using KOH.

[4] = tested on: spinach; assay: Activation test 5 (maintenance of freshness and water after harvest); assay type: in vivo, Spinacia oleracea; conditions: 100 mL/plant at root on the day before harvest, humidity 40%
Experimental: 18 hours later, the aerial part was harvested by cutting at the root with a cutter, and 5 bunches were wrapped with a piece of newspaper having the same area (30 cm×45 cm) among samples. Four types in total of test groups (20 individuals in total) including all the test groups were placed in a plastic bag (25 cm×[…]), positioned in an upright posture with the mouth of the bag opened, and stored in a refrigerator of 4° C. with a humidity of 40%. Time-dependent change in the weight of each individual was measured with a weight scale. […] The mean and standard deviation of change in the weights of 20 individuals at each time per group were determined.

[5] = tested on: stem lettuce (Lactuca sativa L.); conditions: humidity 40%; for survival rate: 50 mL of 10 mM aqueous acetic acid solution at root, 24 hours, then 42° C., continuous light, no water supply
Experimental: A plant that was irrigated, at its root, with 50 mL of water and allowed to absorb it over 24 hours was assigned to water treatment group 1, and a plant that was irrigated, at its root, with 50 mL of a 10 mM aqueous acetic acid solution and allowed to absorb it over 24 hours was assigned to acetic acid treatment group 1.
(§1) The survival rate was calculated by counting the number of stem lettuce seedlings that were not killed by firing.

[6] = tested on: tomato (breed: Momotaro, Solanum lycopersicum); conditions: for survival rate: 50 mL at root, 24 hours: 20 mM acetic acid alone, or 10 mM acetic acid and 10 mM malic acid, then 50° C., humidity 10%, no water supply
Experimental: A plant that was irrigated, at its root, with 50 mL of water and allowed to absorb it over 24 hours was assigned to water treatment group 3, and a plant that was irrigated, at its root, with 50 mL of a 20 mM aqueous acetic acid solution and allowed to absorb it over 24 hours was assigned to acetic acid treatment group 3. Also, a plant that was irrigated, at its root, with 50 mL of an aqueous solution containing 10 mM acetic acid and 10 mM malic acid and allowed to absorb it over 24 hours was assigned to treatment group 3.
as §1

[7] = tested on: aromaticus (Plectranthus amboinicus); assay: Activation test 4 (induction of roots); conditions: cuttings dipped in 200 mL testing solution (0.06% (w/w) acetic acid, or 0.24% (w/w) malic acid and 0.06% (w/w) acetic acid, pH=6.0), raised 2 weeks
[8] = tested on: Peperomia (Peperomia albovittata); assay: Activation test 1 (induction and growth of flower buds); conditions: 50 mL at root, 24 hours: 20 mM acetic acid alone, or 20 mM acetic acid and 0.075 μM malic acid, 22° C., humidity 40%, left standing 3 weeks

## O=C(O)CC(O)C(=O)O (centres unmarked) [malic acid]
[1]
  significant difference in wet root weight after harvest against water treatment group 3: No significant difference
[2]
  number of new flower buds compared with water treatment group 6: No significant difference
[3]; 0.24% (w/w) aqueous malic acid solution, Welch test
  significant difference in wet weight against water treatment group 2: No significant difference
[4]; 0.24% (w/w) malic acid, pH=6.0, stored at 4° C.
  significant difference in the rate of decrease in wet weight against water treatment group 5: No significant difference

## CC(=O)O [acetic acid]
[1]
  significant difference in wet root weight after harvest against water treatment group 3: No significant difference
[2]; conclusion of activation test 6
  new formation and formation of apical buds and flower buds: can promote the new formation and formation of apical buds and flower buds
[2]
  number of new flower buds compared with water treatment group 6: increase in the number of flower buds
[5]; 10 mM acetic acid, 42° C., compared with water treatment group 1
  ability of plants to tolerate drying at a high temperature: potentiated the ability of plants to tolerate drying at a high temperature
[5]; left standing 5 days
  survival rate: 100%
[5]; still standing 7 days
  survival rate: 100%
[3]; against water treatment group 2, 0.06% (w/w) acetic acid, or 0.24% (w/w) malic acid and 0.06% (w/w) acetic acid, 20 individuals
  increase in wet weight: 122%
[4]; stored at 4° C.
  effect of maintaining the freshness of plants after harvest: effect of maintaining the freshness of plants after harvest was shown
[4]; after 96 hours at 4° C., 0.06% (w/w) acetic acid, or with 0.24% (w/w) malic acid
  reduction preventing effect on decrease in water content compared with water treatment group 5: 7.1%
[4]; at and after 12 hours from the start of refrigeration, 4° C.
  water retaining effect compared with water treatment group 5 and malic acid treatment group 5: marked water retaining effect
[6]; still standing 3 days
  survival rate: 100%
[6]; still standing 4 days
  survival rate: 0%
[6]; order: acetic acid+malic acid treatment group 3, acetic acid treatment group 3, water treatment group 3
  ability to tolerate drying at a high temperature (order of groups): more potentiated
[7]
  new roots confirmed: New roots were confirmed in neither
[8]; water treatment group 0
  number of flower buds after flowering that grew into 3 cm or larger: 0
[8]; water treatment group 3
  number of flower buds formed before flowering: 5

— US20230093311A1, “HEAT TOLERANCE OR DRYING TOLERANCE IMPROVING AGENT, SALT TOLERANCE IMPROVING AGENT, ACTIVITY IMPROVING AGENT FOR PLANT” (priority 2020, published 2023)
